Measurements from US20060069132A1, “Azolecarboxamide herbicides” (priority 2004, published 2006).

Legend:
velvetleaf = test: Test C pre-/postemergence herbicide test; type: in vivo, Abutilon theophrasti; conditions: for Velvetleaf plant response rating: 500 g ai/ha
How it was run: (§1)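 Greenhouse-grown plants were evaluated visually 12 to 14 days after treatment, with 100 meaning complete control and 0 no effect. Application was preemergence, or postemergence at 2 to 18 cm.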

morningglory = test: Test A pre-/postemergence herbicide test; type: in vivo, Ipomoea spp.
How it was run: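 Plants are held in greenhouse about ten days after treatment, then compared with untreated controls and scored 0 (no effect) to 100 (complete control). Preemergence dosing is a directed soil spray on sown sandy loam; postemergence dosing is spray to runoff at 2–10 cm height.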

giant foxtail = test: Test C pre-/postemergence herbicide test; type: in vivo, Setaria faberi; conditions: for Foxtail, Giant plant response rating: 500 g ai/ha
How it was run: as §1

barnyardgrass = test: Test C flooded paddy test; type: in vivo, Echinochloa crus-galli
How it was run: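 After a postemergence application at 1 to 4 leaves (plants 2–18 cm high), or at 2 leaves for barnyardgrass in flooded paddy, plants stayed in the greenhouse for 12 to 14 days. Damage was then judged visually relative to control plants, with 100 indicating complete control.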

yellow nutsedge = test: Test C pre-/postemergence herbicide test; type: in vivo, Cyperus esculentus; conditions: for Nutsedge, Yellow plant response rating: 500 g ai/ha
How it was run: as §1

woolly cupgrass = test: Test C pre-/postemergence herbicide test; type: in vivo, Eriochloa villosa; conditions: for Cupgrass, Woolly plant response rating: 500 g ai/ha
How it was run: as §1

[1] = system: common (oilseed) sunflower; test: Test C pre-/postemergence herbicide test; type: in vivo, Helianthus annuus
How it was run: as §1

bermudagrass = test: Test C pre-/postemergence herbicide test; type: in vivo, Cynodon dactylon
How it was run: as §1

[2] = 125 g ai/ha, scale 0 (no effect) to 100 (complete control), visual, 12 to 14 days, preemergence
[3] = Preemergence, scale 0 to 100, 0 no effect, 100 complete control
[4] = postemergence, 125 g ai/ha, scale 0 to 100
[5] = postemergence, 62 g ai/ha, scale 0 to 100
[6] = 250 g ai/ha, scale 0 to 100 (0 no effect, 100 complete control), visual, 12 to 14 days, preemergence
[7] = Postemergence, 250 g ai/ha, scale 0 to 100, 0 no effect, 100 complete control
[8] = Preemergence, 500 g ai/ha, scale 0 to 100, 0 no effect, 100 complete control

C#CCNC(=O)c1cccc(NC(=O)c2cc(C(C)(C)C)nn2CC)n1 [Compound 147]
Plant response rating, Velvetleaf (velvetleaf; [2]): 20 | Velvetleaf plant response rating (velvetleaf; Postemergence, scale 0 to 100): 40 | Velvetleaf plant response rating (velvetleaf; [3]): 90 | Plant response rating, Velvetleaf (velvetleaf; [4]): 30 | Plant response rating, Velvetleaf (velvetleaf; [5]): 0 | Morningglory plant response rating (morningglory; Postemergence, 500 g ai/ha, 0 to 100 scale, 0 no effect, 100 complete control): 20 | Plant response rating, Morningglory (morningglory; Postemergence, 2000 g ai/ha, 0 to 100 scale, 0 no effect, 100 complete control): 30 | Morningglory plant response rating (morningglory; Preemergence, 500 g ai/ha, visual rating, 0 to 100 scale (0 no effect, 100 complete control)): 20 | Morningglory plant response rating (morningglory; Preemergence, 2000 g ai/ha, visual rating, 0 to 100 scale (0 no effect, 100 complete control)): 45 | Plant response rating (0 = no effect, 100 = complete control), Foxtail, Giant (giant foxtail; 62 g ai/ha, preemergence): 0 | Plant response rating, Foxtail, Giant (giant foxtail; [2]): 0 | Plant response rating, Foxtail, Giant (giant foxtail; [6]): 30 | Foxtail, Giant plant response rating (giant foxtail; Postemergence, scale 0 to 100): 45 | Plant response rating, Foxtail, Giant (giant foxtail; [7]): 0 | Foxtail, Giant plant response rating (giant foxtail; [3]): 100 | Plant response rating, Foxtail, Giant (giant foxtail; [4]): 0 | Plant response rating, Foxtail, Giant (giant foxtail; [5]): 0 | Barnyardgrass plant response rating (barnyardgrass; 16 g ai/ha, scale 0 to 100): 0 | Barnyardgrass plant response rating (barnyardgrass; 31 g ai/ha, scale 0 to 100): 0 | Barnyardgrass plant response rating (barnyardgrass; 62 g ai/ha, scale 0 to 100 (0 no effect, 100 complete control)): 0 | Barnyardgrass plant response rating (barnyardgrass; 125 g ai/ha, scale of 0 to 100, 0 is no effect, 100 is complete control): 0 | Plant response rating (0 = no effect, 100 = complete control), Nutsedge, Yellow (yellow nutsedge; 62 g ai/ha, preemergence): 0 | Plant response rating, Nutsedge, Yellow (yellow nutsedge; [2]): 0 | Nutsedge, Yellow plant response rating (yellow nutsedge; Postemergence, scale 0 to 100): 0 | Plant response rating, Nutsedge, Yellow (yellow nutsedge; [7]): 0 | Nutsedge, Yellow plant response rating (yellow nutsedge; [3]): 0 | Plant response rating, Nutsedge, Yellow (yellow nutsedge; [4]): 0 | Plant response rating, Nutsedge, Yellow (yellow nutsedge; [5]): 0 | Plant response rating (0 = no effect, 100 = complete control), Cupgrass, Woolly (woolly cupgrass; 62 g ai/ha, preemergence): 0 | Plant response rating, Cupgrass, Woolly (woolly cupgrass; [2]): 10 | Plant response rating, Cupgrass, Woolly (woolly cupgrass; [6]): 10 | Cupgrass, Woolly plant response rating (woolly cupgrass; Postemergence, scale 0 to 100): 30 | Plant response rating, Cupgrass, Woolly (woolly cupgrass; [7]): 10 | Cupgrass, Woolly plant response rating (woolly cupgrass; [3]): 60 | Plant response rating, Cupgrass, Woolly (woolly cupgrass; [4]): 0 | Plant response rating, Cupgrass, Woolly (woolly cupgrass; [5]): 0 | Plant response rating (0 = no effect, 100 = complete control), Sunflower ([1]; 62 g ai/ha, preemergence): 0 | Plant response rating, Sunflower [1, 2]: 0 | Sunflower plant response rating [1, 8]: 0 | Plant response rating (0 = no effect, 100 = complete control), Bermudagrass (bermudagrass; 62 g ai/ha, preemergence): 40 | Plant response rating, Bermudagrass (bermudagrass; [2]): 70 | Plant response rating, Bermudagrass (bermudagrass; [6]): 90 | Plant response rating, Bermudagrass (bermudagrass; [7]): 70 | Bermudagrass plant response rating (bermudagrass; [8]): 95
